{"source": "patent US8729334B2", "about": "“Method for determining genotoxicity using non-fluorescent proteins” (priority 2010, dated 2014)", "key": {"[1]": {"system": "CH4003 (TA98 carrying EGFP^mut3 on chromosome)", "conditions": "for Number of revertants, EGFP^mut2 TA98, phenotype EGFP^+: total 10^6 bacteria plated on NA plates", "protocol": "(§1) The EGFP^mut DNA was inserted into the chromosome of Salmonella typhimurium LT2 strain via its putA site approximately 5 minutes away from the termination (ter) region of the chromosome (Elliott, 1992). lacP-EGFP^mut::CAT DNA was amplified with primers that contain sequences for the putA site of S. enterica serovar Typhimurium: 5′-primer […] […] […], which consisted of 50-nt or 55-nt of putA (putA sequences are underlined) and 25-nt or 22-nt sequences flaking lacP-nonEGFP::cat using pEGFP^mut::CAT plasmid as template. The 1.4-kbp PCR products were purified and transformed into bacteria carrying a Red helper plasmid (pKD46) by electroporation (Datsenko and Wanner, 2000). The Linear DNA contained a chloramphenicol gene as a marker for the P22 transduction into the S. typhimurium strain of Ames test, TA100 and TA98 to construct CH4001 and 4003, respectively (Davis, et al., 1980).\n(§2) Subsequently, the gene for EGFP^mut was placed in the chromosome of relevant Salmonella typhimurium to establish mutation test strains analogous to that of Ames test. Linear DNA transformation method using λ Red system (Datsenko and Wanner, 2000) was employed to place the EGFP^mut genes at putAP sites (Elliott, 1992) in the wild type Salmonella chromosome, LT2. Then, each EGFP^mut1 and EGFP^mut3 gene was moved to TA100 and TA98 using generalized transducing phage, P22, resulting in a construction of CH 4001 and 4003.\n(§3) We tested mutation frequency of these two strains together with conventional Ames test strains, TA100 and TA98, in the presence of mutagens, ENU and ICR191. ENU is known to induce base-pair substitution while ICR191 frameshift mutation (OECD, 1997). His^+ revertants were selected on minimal plates and EGFP^+ revertants were screened on NA plates which allowed visualization of about 10^6 colonies individually. […], a test strain for frameshift mutation, together with TA98, was incubated with 1 mg/plate ICR191."}, "[2]": {"system": "CH4003 (TA98 carrying EGFP^mut3 on chromosome)", "assay": "His+ reversion, strain CH4003", "conditions": "for Number of revertants, EGFP^mut2 TA98, phenotype His^+: total 10^6 bacteria plated on minimal media plates", "protocol": "as §1\n(§4) The plate-incorporation assay was carried out as described (OECD, 1997). Briefly, bacterial cells from stock cultures were grown for 12 hr in liquid medium at 37° C. A volume of 0.1 mL bacterial suspension was added to 2 mL of top agar (Difco) medium containing 0.6% agar, 0.6% NaCl and 20.96 μg of l-histidine and d-biotin (Sigma). Test solution (or solvent control, or positive control agent) and the S9-mix (0.5 mL/plate; 10% (v/v) S9) or potassium phosphate buffer (0.5 mL/plate; 0.2 M, pH 7.4; Sigma) were also added to the top agar which was then mixed and poured onto the top of Vogel-Bonner minimal medium agar plates (3 replicates/dose for the treated and 6 replicates for the solvent control). Colonies were counted 48 hr after incubation at 37° C. The highest volume of the test solution added per plate was initially limited to 100 μL, and then increased up to 200 μL in confirmation studies.\nSubsequently, the gene for EGFP^mut was placed in the chromosome of relevant Salmonella typhimurium to establish mutation test strains analogous to that of Ames test. […]"}, "[3]": {"system": "S. typhimurium TA98", "assay": "Ames test, His+ reversion, tester strain TA98", "conditions": "for Number of revertants, TA98, phenotype His^+: total 10^6 bacteria plated on minimal media plates", "protocol": "(§5) S. typhimurium strain of Ames test, TA98 and TA, were purchased and grown following manufacture's instruction (Xenometrix AG, Switzerland). CH4001 and CH4003 strains carrying EGFP^mut DNA on their chromosomes (Table 1) were created as described in Result section.\nas §4, §3"}, "[4]": {"system": "MutaFish^3 carrying EGFP^mut3", "assay": "Genotoxicity test in transgenic zebrafish embryos, MutaFish^3", "type": "in vivo, zebrafish (Danio rerio)", "protocol": "Almost all embryos were hatched during this incubation period.\nOne highly transgene-positive line was established."}, "[5]": {"system": "CH4001 (TA100 carrying EGFP^mut1 on chromosome)", "protocol": "as §1, §2, §3"}, "[6]": {"system": "S. typhimurium TA100", "assay": "Ames test, His+ reversion, tester strain TA100", "protocol": "as §5, §4\nWe tested mutation frequency of these two strains together with conventional Ames test strains, TA100 and TA98, in the presence of mutagens, ENU and ICR191. […]"}, "[7]": {"system": "CH4001 (TA100 carrying EGFP^mut1 on chromosome)", "assay": "His+ reversion, strain CH4001", "protocol": "as §1\nThe plate-incorporation assay was carried out as described (OECD, 1997). Briefly, bacterial cells from stock cultures were grown for 12 hr in liquid medium at 37° C. A volume of 0.1 mL bacterial suspension was added to 2 mL of top agar (Difco) medium containing 0.6% agar, 0.6% NaCl and 20.96 μg of l-histidine and d-biotin (Sigma). […] Colonies were counted 48 hr after incubation at 37° C. […]"}, "[8]": {"system": "MutaFish^1 carrying EGFP^mut1", "assay": "Genotoxicity test in transgenic zebrafish embryos, MutaFish^1", "source_text": "EGFP^mut plasmid constructed as described above was microinjected into one-cell stage fertilized eggs laid by the AB* zebrafish line (Oregon University, Corvallis, Oreg.) with transposase mRNA. The microinjected eggs were raised to sexual maturity and mated to wild type AB* zebrafish. Subsequently, the resulting embryos were screened for the presence of mCherry fluorescence in the heart. The screened embryos (hereinafter named as F1) were processed for RT-PCR, Western blotting and Southern blotting to verify the genomic integration of mutant EGFP. The F1 embryos were raised again to sexual maturity and mated to each other to generate F2 embryos homozygous for EGFP^mut. F3 embryos, generated by in-cross between F2 zebrafish, were raised again to sexual maturity.\nFertilized eggs were obtained by pair mating transgenic F3 female and nontransgenic male fish. We divided 24 hr embryos, still coated with chorion, into three groups (266 embryos/group) and exposed them for 30 min at 26° C. to 10 ml of 0, 2, or 5 mM ENU in 0.1% Instant Ocean salts (Senja Pharmaceutical, Hyogo, Japan). Mutagenized embryos were then rinsed and kept in a 28.5° C. incubator for three days. […] The pooled surviving larvae were checked for morphological abnormality and EGFP^+ larvae were selected and then scored by FACSAria (BD Biosciences).\nWe injected Tol2 plasmid encoding EGFP^mut and transposase mRNA into one-cell stage fertilized zebrafish eggs. F1 progeny with germline transmission were selected by PCR and Southern blot analysis as described in the Experimental Protocol.\nTo evaluate whether these transgenic fishes could detect mutations in vivo, 24 hr embryos obtained by pair mating the transgenic and nontransgenic fish were treated with mutagens for 30 min: MutaFish^1 with ENU (5 mM) and MutaFish^3 with ICR191 (10 mM). Three days after treatment, the number of EGFP^+ larvae was determined (Table 4)."}, "[9]": {"conditions": "0.1 mg/plate ENU, total 10^6 bacteria plated on minimal media plates"}, "[10]": {"conditions": "EGFP^mut1 MutaFish, 24 hr embryos, 5 mM ENU for 30 min, scored three days after treatment"}}, "note": "Where two headings read alike, the source gives them in different places.", "data": [{"smiles": "COc1ccc2nc3cc(Cl)ccc3c(NCCCNCCCl)c2c1", "note": "[ICR191]", "values": [{"measurement": "Number of revertants, EGFP^mut2 TA98, phenotype EGFP^+", "setting": "[1]; 1 mg/plate ICR191", "result": 456.3}, {"measurement": "frequency of EGFP^+ revertants", "setting": "[1]; in the presence of ICR191 (1 mg/plate), CH4003", "result": "456.3×10^−6"}, {"measurement": "mutation frequency of His^+ revertants in CH4003", "setting": "[2]; 1 mg/plate ICR191", "result": "420.8×10^−6"}, {"measurement": "Number of revertants, EGFP^mut2 TA98, phenotype His^+", "setting": "[2]; 1 mg/plate ICR191", "result": 377.6}, {"measurement": "frequency of His^+ revertants in TA98", "setting": "[3]; 1 mg/plate ICR191", "result": "327.6×10^−6"}, {"measurement": "Number of revertants, TA98, phenotype His^+", "setting": "[3]; 1 mg/plate ICR191", "result": 420.8}, {"measurement": "frequency of EGFP^+ larvae", "setting": "[4]; MutaFish^3, ICR191 10 mM for 30 min, three days after treatment", "result": "2.32×10^−3"}, {"measurement": "Morphological abnormality (%)", "setting": "[4]; zebrafish, in vivo", "result": 24.2, "unit": "%"}, {"measurement": "Mutant frequency × 10^−5", "setting": "[4]; zebrafish, in vivo", "result": "232 × 10^−5"}, {"measurement": "Survival rate (%)", "setting": "[4]; zebrafish, in vivo", "result": 79.2, "unit": "%"}]}, {"smiles": "CCN(N=O)C(N)=O", "note": "[ENU]", "values": [{"measurement": "Number of revertants, EGFP^mut2 TA98, phenotype EGFP^+", "setting": "[1]; 0.1 mg/plate ENU", "result": 3.2}, {"measurement": "Number of revertants, EGFP^mut1 TA100, phenotype EGFP^+", "setting": "[5]; 0.1 mg/plate ENU, total 10^6 bacteria plated on NA plates", "result": 7.1}, {"measurement": "frequency of EGFP^+ reversion", "setting": "[5]; in the presence of ENU (0.1 mg/plate), CH4001", "result": "7.1×10^−6"}, {"measurement": "Number of revertants, TA100, phenotype His^+", "setting": "[6]; [9]", "result": 5.6}, {"measurement": "frequency of His^+ revertants in TA100", "setting": "[6]; 0.1 mg/plate of ENU", "result": "5.6×10^−6"}, {"measurement": "Number of revertants, EGFP^mut2 TA98, phenotype His^+", "setting": "[2]; 0.1 mg/plate ENU", "result": 3.5}, {"measurement": "Number of revertants, EGFP^mut1 TA100, phenotype His^+", "setting": "[7]; [9]", "result": 5.2}, {"measurement": "frequency of His^+ revertants in CH4001", "setting": "[7]; 0.1 mg/plate of ENU", "result": "5.2×10^−6"}, {"measurement": "Morphological abnormality (%)", "setting": "[8]; [10]", "result": 20.9, "unit": "%"}, {"measurement": "Survival rate (%)", "setting": "[8]; [10]", "result": 97.3, "unit": "%"}, {"measurement": "Mutant frequency × 10^−5", "setting": "[8]; EGFP^mut1 MutaFish, EGFP^+ larvae, 5 mM ENU for 30 min, three days after treatment", "result": "63 × 10^−5"}, {"measurement": "frequency of EGFP^+ larvae", "setting": "[8]; MutaFish^1, ENU 5 mM for 30 min, three days after treatment", "result": "6.3×10^−4"}, {"measurement": "Number of revertants, TA98, phenotype His^+", "setting": "[3]; 0.1 mg/plate ENU", "result": 3.2}]}]}
